According to DBAASP:
Converted amounts (≈) assume the structure as drawn. Each block holds one compound with its values, some of them ahead of it.

Tests used:
Test in all cases: ≥ marks a high value that may be exact or a test limit, other limits are often not marked, values filed in µg/mL are converted to µM
[1] = test system: Escherichia coli KpC+001812446
[2] = test system: Enterococcus faecalis ATCC 12953
[3] = test system: Klebsiella pneumoniae KpC+001825971
[4] = test system: Staphylococcus aureus ATCC 29213
[5] = test system: Salmonella enterica subsp. enterica serovar Typhimurium ATCC 14028
[6] = test system: Pseudomonas aeruginosa ATCC 15442
[7] = test system: Staphylococcus aureus ATCC 33591
[8] = test system: Streptococcus pyogenes ATCC 19615
[9] = test system: Klebsiella pneumoniae ATCC 13885
[10] = test system: Bacillus subtilis ATCC 6633
[11] = test system: Escherichia coli ATCC 8739
[12] = test system: Proteus mirabilis ATCC 25933
[13] = test system: Escherichia coli KpC+002101123
[14] = test system: Staphylococcus aureus ATCC 25923
Escherichia coli C25 = test system: Escherichia coli C25
[15] = test system: Klebsiella pneumoniae ATCC 27736
[16] = test system: Staphylococcus aureus ATCC 700698
Cryptococcus neoformans = test system: Cryptococcus neoformans
[17] = test system: Escherichia coli ATCC 9637
Sporothrix schenckii = test system: Sporothrix schenckii
[18] = test system: Pseudomonas aeruginosa ATCC BAA-427
[19] = test system: Staphylococcus aureus ATCC 700699
[20] = test system: Candida albicans ATCC 10231
[21] = test system: Staphylococcus aureus ATCC 33592
[22] = test system: Staphylococcus aureus ATCC BAA-44
[23] = test system: Candida parapsilosis ATCC 22019
[24] = test system: Staphylococcus aureus Cowan 1
[25] = test system: Leishmania major MHOM/IL/67/JERICHO-II
Escherichia coli HB101 = test system: Escherichia coli HB101
Salmonella sp. = test system: Salmonella sp.
[26] = test system: Serratia marcescens ATCC 4112
[27] = test system: Pseudomonas aeruginosa ATCC 27853
[28] = test system: Enterobacter cloacae beta-12
Escherichia coli SBS 363 = test system: Escherichia coli SBS 363
[29] = test system: Salmonella enterica subsp. arizonae
[30] = test system: Alcaligenes faecalis ATCC 8750
Escherichia coli D31 = test system: Escherichia coli D31
[31] = test system: Streptococcus mutans UA159
[32] = test system: Streptococcus sobrinus ATCC 6715
[33] = test system: Streptococcus sanguinis ATCC 10556

MIC (Salmonella sp.): 6.26 µM (≈ 5.8 µg/mL)
MIC [26]: 6.26 µM (≈ 5.8 µg/mL)
MIC [27]: 6.26 µM (≈ 5.8 µg/mL)
MIC [28]: 3.13 µM (≈ 2.9 µg/mL)
MIC (Escherichia coli SBS 363): 6.26 µM (≈ 5.8 µg/mL)
MIC [29]: 6.26 µM (≈ 5.8 µg/mL)
MIC [30]: 6.26 µM (≈ 5.8 µg/mL)
MIC (Escherichia coli D31): 6.26 µM (≈ 5.8 µg/mL)
Structure (SMILES): CC(C)[C@H](NC(=O)[C@H](C)NC(=O)[C@@H]1CCCN1C(=O)[C@H](Cc1ccc(O)cc1)NC(=O)[C@@H](N)CCCN=C(N)N)C(=O)NCC(=O)N[C@@H](Cc1ccc(O)cc1)C(=O)N[C@H](C(=O)O)[C@@H](C)O [RYPAVGYT]

MIC [31]: 4.22 µM (≈ 8 µg/mL)
MIC [32]: 4.22 µM (≈ 8 µg/mL)
MIC [33]: 4.22 µM (≈ 8 µg/mL)
Structure (SMILES): NCCCC[C@H](NC(=O)[C@H](Cc1c[nH]c2ccccc12)NC(=O)[C@H](CCCCN)NC(=O)[C@H](CCCCN)NC(=O)[C@H](Cc1ccccc1)NC(=O)[C@H](Cc1ccccc1)NC(=O)[C@H](CCCCN)NC(=O)[C@H](CCCCN)NC(=O)[C@H](Cc1ccccc1)NC(=O)[C@H](Cc1ccccc1)NC(=O)[C@H](CCCCN)NC(=O)[C@H](Cc1ccccc1)NC(=O)[C@@H](N)Cc1c[nH]c2ccccc12)C(=O)O [WFKFFKKFFKKWK]

Second part, the compound before the results:

Structure (SMILES): CC[C@H](C)[C@H](NC(=O)[C@H](CCCCN)NC(=O)CNC(=O)[C@H](CC(C)C)NC(=O)[C@H](Cc1ccccc1)NC(=O)[C@H](CCC(N)=O)NC(=O)[C@H](Cc1ccccc1)NC(=O)[C@@H](NC(=O)[C@@H](NC(=O)[C@@H](NC(=O)[C@@H]1CCCN1C(=O)[C@H](CC(C)C)NC(=O)[C@@H](N)Cc1ccccc1)[C@@H](C)CC)[C@@H](C)CC)C(C)C)C(=O)N[C@H](C(=O)N[C@@H](Cc1cnc[nH]1)C(=O)N[C@@H](Cc1cnc[nH]1)C(=O)N[C@H](C(=O)NCC(=O)N[C@@H](CC(N)=O)C(=O)N[C@@H](Cc1ccccc1)C(=O)N[C@H](C(=O)N[C@@H](Cc1cnc[nH]1)C(=O)NCC(=O)N[C@@H](Cc1ccccc1)C(=O)N[C@@H](CO)C(=O)N[C@@H](Cc1cnc[nH]1)C(=O)N[C@H](C(=O)N[C@@H](Cc1ccccc1)C(N)=O)C(C)C)C(C)C)C(C)C)[C@@H](C)CC [FLPIIVFQFLGKIIHHVGNFVHGFSHVF]
MIC [1]: 6 µM (≈ 19.5 µg/mL)
MIC [2]: 1.5 µM (≈ 4.87 µg/mL)
MIC [3]: 3 µM (≈ 9.75 µg/mL)
MIC [4]: 24 µM (≈ 78 µg/mL)
MIC [5]: 3 µM (≈ 9.75 µg/mL)
MIC [6]: 3 µM (≈ 9.75 µg/mL)
MIC [7]: 6 µM (≈ 19.5 µg/mL)
MIC [8]: 6 µM (≈ 19.5 µg/mL)
MIC [9]: 3 µM (≈ 9.75 µg/mL)
MIC [10]: 1.5 µM (≈ 4.87 µg/mL)
MIC [11]: 12 µM (≈ 39 µg/mL)
MIC [12]: 6 µM (≈ 19.5 µg/mL)
MIC [13]: 6 µM (≈ 19.5 µg/mL)

Structure (SMILES): CC[C@H](C)[C@H](NC(=O)[C@H](Cc1ccc(O)cc1)NC(=O)[C@H](CCCN=C(N)N)NC(=O)[C@H](CCCN=C(N)N)NC(=O)[C@@H](N)CCCN=C(N)N)C(=O)NCC(=O)N[C@@H](CCCN=C(N)N)C(=O)N[C@@H](Cc1ccc(O)cc1)C(=O)N[C@H](C(=O)N[C@@H](CCCN=C(N)N)C(=O)N[C@@H](Cc1ccccc1)C(=O)N[C@@H](Cc1c[nH]c2ccccc12)C(=O)N[C@@H](CCCCN)C(N)=O)C(C)C [RRRYIGRYVRFWK]
MIC [14]: 8.4 µM (≈ 15.6 µg/mL)
MIC (Escherichia coli C25): 2.1 µM (≈ 3.9 µg/mL)

Structure (SMILES): CC[C@H](C)[C@H](NC(=O)[C@H](C)NC(=O)CNC(=O)[C@H](CCCCN)NC(=O)[C@@H](NC(=O)[C@H](CC(C)C)NC(=O)[C@H](Cc1c[nH]c2ccccc12)NC(=O)CNC(=O)[C@H](Cc1ccccc1)NC(=O)[C@@H](N)Cc1ccccc1)[C@@H](C)CC)C(=O)N[C@@H](Cc1cnc[nH]1)C(=O)N[C@@H](C)C(=O)N1CCC[C@H]1C(=O)N[C@@H](CCCCN)C(=O)N[C@@H](C)C(=O)N[C@H](C(=O)N[C@@H](Cc1cnc[nH]1)C(=O)N1CCC[C@H]1C(=O)N[C@@H](CC(C)C)C(=O)N[C@H](C(=O)N[C@@H](Cc1cnc[nH]1)C(=O)N[C@@H](CCCN=C(N)N)C(=O)N[C@@H](CCCN=C(N)N)C(=O)N[C@@H](CCCN=C(N)N)C(=O)N[C@@H](Cc1cnc[nH]1)C(=O)O)[C@@H](C)CC)[C@@H](C)CC [FFGWLIKGAIHAPKAIHPLIHRRRH]
MIC [14]: 3 µM (≈ 8.92 µg/mL)
MIC [15]: 27.2 µM (≈ 80.9 µg/mL)
MIC [4]: 3 µM (≈ 8.92 µg/mL)
MIC [16]: 3 µM (≈ 8.92 µg/mL)
MIC (Cryptococcus neoformans): 30 µM (≈ 89.2 µg/mL)
MIC [17]: 6.8 µM (≈ 20.2 µg/mL)
MIC (Sporothrix schenckii): 30 µM (≈ 89.2 µg/mL)
MIC [18]: 13.6 µM (≈ 40.4 µg/mL)
MIC [10]: 3 µM (≈ 8.92 µg/mL)
MIC [19]: 3 µM (≈ 8.92 µg/mL)
MIC [20]: > 30 µM
MIC [21]: 1.6 µM (≈ 4.76 µg/mL)
MIC [22]: 3 µM (≈ 8.92 µg/mL)
MIC [23]: 30 µM (≈ 89.2 µg/mL)

Structure (SMILES): CSCC[C@H](NC(=O)[C@@H](NC(=O)CNC(=O)[C@H](CC(C)C)NC(=O)[C@H](CCCCN)NC(=O)[C@H](CCCCN)NC(=O)[C@H](CC(C)C)NC(=O)[C@H](CCSC)NC(=O)[C@@H](NC(=O)[C@H](CCCCN)NC(=O)[C@H](Cc1c[nH]c2ccccc12)NC(=O)[C@H](CC(C)C)NC(=O)[C@H](C)N)[C@@H](C)O)[C@@H](C)O)C(N)=O [ALWKTMLKKLGTM]
MIC [24]: ≥ 50.6 µM
MIC [25]: ≥ 50.6 µM
MIC (Escherichia coli HB101): ≥ 50.6 µM
